Values after ≈ are worked out from the molar mass of the structure shown.
Legend:
Type in all cases: cell-based
[1] = tested on: Streptococcus pneumoniae (ATCC 49619); assay: Antibacterial MIC assay (microbroth dilution, CLSI); details: 35° C., 16-20 hours; for MIC Streptococcus pneumoniae (ATCC 49619): 3% lysed horse blood
Summary of the method: (§1)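 Microbroth dilution per CLSI M07-A10/M100-S25 in cation-adjusted Mueller-Hinton broth, with 3% lysed horse blood added for S. pneumoniae. Inoculum from a 0.5 McFarland direct colony suspension, diluted to 5×10^5 CFU/mL in the well. Compounds were 2-fold serially diluted; MIC read against a growth control.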

[2] = tested on: Staphylococcus aureus, MRSA (ATCC 33591); assay: as above; details: 35° C., 16-20 hours
Summary of the method: as §1

[3] = tested on: Wolbachia pipientis in C6/36 cell line; assay: Anti-Wolbachia high-content assay; details: C6/36 (wAlbB) cells, 7 days at 26° C., 50% reduction of Wolbachia
Excerpt: C6/36 cells (ECACC #89051705, derived from Aedes albopictus larvae) were infected with Wolbachia pipientis derived from the supernatant of cultured A. albopictus Aa23 cells to create a stably Wolbachia-infected cell line C6/36 (wAlbB). This cell line was subpassaged 6-8 days prior to plating out at a density of 2000 viable cells per well in a 384-well CellCarrier plate suspended in Liebovitz media supplemented with 20% fetal bovine serum, 2% tryptose phosphate broth and 1% non-essential amino acids. Compounds were dissolved and diluted in DMSO, and compound solution was added to each well to provide a final DMSO concentration <1% and a total volume of 100 μL per well. Following 7 days of sterile incubation at 26° C., staining media containing SYTO 11 DNA dye was added to each well. After 15 minutes, all media was removed from each well and fresh media (no stain) was added. Imaging of each well was accomplished using a Perkin Elmer Operetta high-content imaging system. Five fields per well were imaged using a confocal 60× objective with the Fluorescein filter (excitation filter: 460-490 nm; emission filter: 500-550 nm). Images were analyzed using the Perkin Elmer Harmony software to score each intact cell on the basis of texture complexity of the cytoplasm. Full details can be found in: […]. Biomol. Screening, 2015, 20, […]. Compound sample wells were analyzed and normalized (along with the positive controls) against the vehicle (untreated) control to give a percentage reduction of Wolbachia-infected cells. Using the cell number analysis, compounds with a host cell number amounting to less than 50% of the vehicle control were classified as toxic and retested at a reduced compound concentration. Dose-response curves were generated with percentage reduction of Wolbachia-infected cells versus compound concentration, using 5-10 compound serial dilutions. Data were analyzed and compound EC50 is determined using a 4 parameter logistic nonlinear regression model.

SMILES | MIC Streptococcus pneumoniae (ATCC 49619) [1] | MIC Staphylococcus aureus, MRSA (ATCC 33591) [2] | EC50 [3] [nM] | MIC ([1]; Streptococcus pneumoniae, ATCC49619, 3% lysed horse blood) [µg/mL] | MIC ([2]; Staphylococcus aureus) [µg/mL]
CNC(=O)CC[C@]1(C)C[C@@H](OC(=O)COc2ccc3c(c2F)B(O)OC3)[C@]2(C)[C@H](C)CC[C@]3(CCC(=O)[C@H]32)[C@@H](C)[C@@H]1O [Compound 3, (3aR,4R,5R,7R,8S,9R,9aS,12R)-8-hydroxy-4,7,9,12-tetramethyl-7-(3-(methylamino)-3-oxopropyl)-3-oxodecahydro-4,9a-propanocyclopenta[8]annulen-5-yl2-((7-fluoro-1-hydroxy-1,3-dihydrobenzo[c][1,2]oxaborol-6-yl)oxy)acetate] | B (0.5-2 is B) | B (0.5-2 is B) | > 1000 | – | –
C[C@@H]1CC[C@@]23CCC(=O)[C@H]2[C@]1(C)[C@H](OC(=O)COc1ccc2c(c1F)B(O)OC2)C[C@@](C)(CCC(N)=O)[C@@H](O)[C@@H]3C [Compound 2, (3aR,4R,5R,7R,8S,9R,9aS,12R)-7-(3-amino-3-oxopropyl)-8-hydroxy-4,7,9,12-tetramethyl-3-oxodecahydro-4,9a-propanocyclopenta[8]annulen-5-yl2-((7-fluoro-1-hydroxy-1,3-dihydrobenzo[c][1,2]oxaborol-6-yl)oxy)acetate] | C (4-32 is C) | C (4-32 is C) | > 1000 | – | –
CC[C@]1(C)C[C@@H](OC(=O)COc2cc(CN)c3c(c2)B(O)OC3)[C@]2(C)[C@H](C)CC[C@]3(CCC(=O)[C@H]32)[C@@H](C)[C@@H]1O [Compound 20, (3aR,4R,5R,7R,8S,9R,9aS,12R)-7-ethyl-8-hydroxy-4,7,9,12-tetramethyl-3-oxodecahydro-4,9a-propanocyclopenta[8]annulen-5-yl2-((4-(aminomethyl)-1-hydroxy-1,3-dihydrobenzo[c][1,2]oxaborol-6-yl)oxy)acetate] | B (0.5-2 is B) | A (MIC of ≤0.25 is A) | 101 | – | –
C[C@@H]1CC[C@@]23CCC(=O)[C@H]2[C@]1(C)[C@H](OC(=O)COc1ccc2c(c1F)B(O)OC2)C[C@@](C)(CNS(C)(=O)=O)[C@@H](OS(C)(=O)=O)[C@@H]3C [Compound 49, (3aR,4R,5R,7S,8S,9R,9aS,12R)-4,7,9,12-tetramethyl-7-(methylsulfonamidomethyl)-8-((methylsulfonyl)oxy)-3-oxodecahydro-4,9a-propanocyclopenta[8]annulen-5-yl2-((7-fluoro-1-hydroxy-1,3-dihydrobenzo[c][1,2]oxaborol-6-yl)oxy)acetate] | D (≥64 is D) | C (4-32 is C) | > 1000 | – | –
CCNC(=O)CC[C@]1(C)C[C@@H](OC(=O)COc2ccc3c(c2F)B(O)OC3)[C@]2(C)[C@H](C)CC[C@]3(CCC(=O)[C@H]32)[C@@H](C)[C@@H]1O [Compound 4, (3aR,4R,5R,7R,8S,9R,9aS,12R)-7-(3-(ethylamino)-3-oxopropyl)-8-hydroxy-4,7,9,12-tetramethyl-3-oxodecahydro-4,9a-propanocyclopenta[8]annulen-5-yl2-((7-fluoro-1-hydroxy-1,3-dihydrobenzo[c][1,2]oxaborol-6-yl)oxy)acetate] | B (0.5-2 is B) | B (0.5-2 is B) | 283 | – | –
C[C@@H]1CC[C@@]23CCC(=O)[C@H]2[C@]1(C)[C@H](OC(=O)COc1ccc2c(c1F)B(O)OC2)C[C@@](C)(CCC(=O)NC1CC1)[C@@H](O)[C@@H]3C [Compound 6, (3aR,4R,5R,7R,8S,9R,9aS,12R)-7-(3-(cyclopropylamino)-3-oxopropyl)-8-hydroxy-4,7,9,12-tetramethyl-3-oxodecahydro-4,9a-propanocyclopenta[8]annulen-5-yl2-((7-fluoro-1-hydroxy-1,3-dihydrobenzo[c][1,2]oxaborol-6-yl)oxy)acetate] | B (0.5-2 is B) | B (0.5-2 is B) | 392 | – | –
C[C@@H]1CC[C@@]23CCC(=O)[C@H]2[C@]1(C)[C@H](OC(=O)COc1ccc2c(c1F)B(O)OC2)C[C@@](C)(/C=C/C(=O)NNC(=O)OC(C)(C)C)[C@@H](O)[C@@H]3C [Compound 17, tert-butyl 2-((E)-3-((3aR,4R,5R,7S,8S,9R,9aS,12R)-5-(2-((7-fluoro-1-hydroxy-1,3-dihydrobenzo[c][1,2]oxaborol-6-yl)oxy)acetoxy)-8-hydroxy-4,7,9,12-tetramethyl-3-oxodecahydro-4,9a-propanocyclopenta[8]annulen-7-yl)acryloyl)hydrazine-1-carboxylate] | – | – | – | 0.5 to 2 (≈ 0.728 to 2.91 µM) | 4 to 32 (≈ 5.83 to 46.6 µM)
CC[C@]1(C)C[C@@H](OC(=O)COc2ccc3c(c2F)B(O)OC3)[C@]2(C)[C@H](C)CC[C@]3(CCC(=O)[C@H]32)[C@@H](C)[C@@H]1O [Compound 19, (3aR,4R,5R,7R,8S,9R,9aS,12R)-7-ethyl-8-hydroxy-4,7,9,12-tetramethyl-3-oxodecahydro-4,9a-propanocyclopenta[8]annulen-5-yl2-((7-fluoro-1-hydroxy-1,3-dihydrobenzo[c][1,2]oxaborol-6-yl)oxy)acetate] | B (0.5-2 is B) | A (MIC of ≤0.25 is A) | – | – | –
CNC(=O)/C=C/[C@]1(C)C[C@@H](OC(=O)COc2ccc3c(c2F)B(O)OC3)[C@]2(C)[C@H](C)CC[C@]3(CCC(=O)[C@H]32)[C@@H](C)[C@@H]1O [Compound 15, (3aR,4R,5R,7S,8S,9R,9aS,12R)-8-hydroxy-4,7,9,12-tetramethyl-7-((E)-3-(methylamino)-3-oxoprop-1-en-1-yl)-3-oxodecahydro-4,9a-propanocyclopenta[8]annulen-5-yl2-((7-fluoro-1-hydroxy-1,3-dihydrobenzo[c][1,2]oxaborol-6-yl)oxy)acetate] | B (0.5-2 is B) | B (0.5-2 is B) | – | – | –
C[C@@H]1CC[C@@]23CCC(=O)[C@H]2[C@]1(C)[C@H](OC(=O)COc1ccc2c(c1F)B(O)OC2)C[C@@](C)(CCl)[C@@H](O)[C@@H]3C [Compound 11, (3aR,4R,5R,7R,8S,9R,9aS,12R)-7-(chloromethyl)-8-hydroxy-4,7,9,12-tetramethyl-3-oxodecahydro-4,9a-propanocyclopenta[8]annulen-5-yl2-((7-fluoro-1-hydroxy-1,3-dihydrobenzo[c][1,2]oxaborol-6-yl)oxy)acetate] | B (0.5-2 is B) | A (MIC of ≤0.25 is A) | – | – | –
CCNC[C@]1(C)C[C@@H](OC(=O)COc2ccc3c(c2F)B(O)OC3)[C@]2(C)[C@H](C)CC[C@]3(CCC(=O)[C@H]32)[C@@H](C)[C@@H]1O [Compound 34, (3aR,4R,5R,7S,8S,9R,9aS,12R)-7-((ethylamino)methyl)-8-hydroxy-4,7,9,12-tetramethyl-3-oxodecahydro-4,9a-propanocyclopenta[8]annulen-5-yl2-((7-fluoro-1-hydroxy-1,3-dihydrobenzo[c][1,2]oxaborol-6-yl)oxy)acetate] | C (4-32 is C) | C (4-32 is C) | – | – | –
CONC(=O)/C=C/[C@]1(C)C[C@@H](OC(=O)COc2ccc3c(c2F)B(O)OC3)[C@]2(C)[C@H](C)CC[C@]3(CCC(=O)[C@H]32)[C@@H](C)[C@@H]1O [Compound 16, (3aR,4R,5R,7S,8S,9R,9aS,12R)-8-hydroxy-7-((E)-3-(methoxyamino)-3-oxoprop-1-en-1-yl)-4,7,9,12-tetramethyl-3-oxodecahydro-4,9a-propanocyclopenta[8]annulen-5-yl2-((7-fluoro-1-hydroxy-1,3-dihydrobenzo[c][1,2]oxaborol-6-yl)oxy)acetate] | B (0.5-2 is B) | C (4-32 is C) | – | – | –
COC[C@]1(C)C[C@@H](OC(=O)COc2ccc3c(c2F)B(O)OC3)[C@]2(C)[C@H](C)CC[C@]3(CCC(=O)[C@H]32)[C@@H](C)[C@@H]1O [Compound 24, (3aR,4R,5R,7S,8S,9R,9aS,12R)-8-hydroxy-7-(methoxymethyl)-4,7,9,12-tetramethyl-3-oxodecahydro-4,9a-propanocyclopenta[8]annulen-5-yl2-((7-fluoro-1-hydroxy-1,3-dihydrobenzo[c][1,2]oxaborol-6-yl)oxy)acetate] | C (4-32 is C) | A (MIC of ≤0.25 is A) | – | – | –

— patent US20220273683A1, “BORON-CONTAINING SMALL MOLECULES” (Bill & Melinda Gates Foundation, priority 2016, published 2022)
